In publication PMC8452690, “Structural basis for small molecule targeting of Doublecortin Like Kinase 1 with DCLK1-IN-1” (Communications Biology, 2021):
Where two headings read alike, the source gives them in different places. Marks after values point to notes of the source that are not given here.

Assays:
[1] = biological target: T1, DCLK1-KD (residues 372-649) (Homo sapiens, UniProt O15075); test: Thermal shift stability assay, DCLK1-KD; format: binding; conditions: compound titration 2.5 to 40 μM
T1 construct: the DCLK1 kinase domain (DCLK1-KD; residues 372-649) by carrying out thermal stability assays; 8XHis tag with TEV protease cleavage site (N); made in house; host or cells: Escherichia coli C41(DE3)
T1 sequence (O15075 372-649 isoform O15075-2): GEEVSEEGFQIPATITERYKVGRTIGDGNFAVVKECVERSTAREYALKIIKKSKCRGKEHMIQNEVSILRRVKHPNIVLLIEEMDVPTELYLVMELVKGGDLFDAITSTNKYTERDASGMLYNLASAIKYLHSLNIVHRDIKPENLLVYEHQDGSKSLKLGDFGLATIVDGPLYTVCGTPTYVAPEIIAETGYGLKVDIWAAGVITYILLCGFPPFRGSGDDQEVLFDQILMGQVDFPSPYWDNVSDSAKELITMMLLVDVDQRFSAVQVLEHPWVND
Method: (§1) DCLK1 proteins were diluted in 150 mM NaCl, 20 mM Tris pH 8.0, 1 mM DTT to […] final concentration and assayed with the appropriate concentration of inhibitor in a total reaction volume of 25 μL. SYPRO Orange (Molecular Probes) was used as a fluorescence probe and detected at 530 nm. The data shown are representative of two independent experiments.

[2] = biological target: T2, DCLK1-FL1Δ WT (Homo sapiens, UniProt O15075); test: Thermal shift stability assay, DCLK1-FL1Δ WT; format: binding; conditions: phosphorylated WT, 2.5-40 μM
T2 sequence (O15075 50-686 isoform O15075-2): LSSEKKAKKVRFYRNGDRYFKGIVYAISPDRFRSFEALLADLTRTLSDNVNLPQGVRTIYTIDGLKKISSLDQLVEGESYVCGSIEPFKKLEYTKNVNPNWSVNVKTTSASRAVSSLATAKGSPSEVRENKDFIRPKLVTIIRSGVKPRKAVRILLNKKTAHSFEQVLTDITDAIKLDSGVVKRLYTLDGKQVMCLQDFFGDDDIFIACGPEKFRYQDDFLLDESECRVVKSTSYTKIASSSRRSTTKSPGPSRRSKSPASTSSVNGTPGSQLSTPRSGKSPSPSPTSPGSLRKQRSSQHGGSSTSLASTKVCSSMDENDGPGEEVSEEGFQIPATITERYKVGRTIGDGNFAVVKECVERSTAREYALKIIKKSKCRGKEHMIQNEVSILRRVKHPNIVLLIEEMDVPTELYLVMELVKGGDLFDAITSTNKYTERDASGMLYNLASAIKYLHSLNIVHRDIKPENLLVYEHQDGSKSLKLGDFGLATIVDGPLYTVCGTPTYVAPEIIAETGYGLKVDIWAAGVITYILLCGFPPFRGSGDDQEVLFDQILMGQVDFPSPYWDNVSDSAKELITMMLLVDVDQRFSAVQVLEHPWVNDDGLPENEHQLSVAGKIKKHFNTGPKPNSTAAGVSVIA
Method: as §1

[3] = biological target: T2, DCLK1-FL1Δ WT; test: SPR binding to immobilised DCLK1-FL1Δ WT (phosphorylated); conditions: for Kd: SPR, 18 °C, DCLK1 FL1Δ WT immobilised, mean ± SEM
Method: (§2) SPR studies were carried out on a Biacore 2000 instrument (Cytivia). Proteins were immobilised at 25 °C using standard amine coupling to a CM5 chip (Cytivia) in immobilisation buffer consisting of 10 mM HEPES pH 7.4, 150 mM NaCl, 1 mM TCEP, 0.005% Tween P20, 1% (v/v) DMSO. To the active flow, cells were coupled either DCLK1-FL1Δ D511N or WT to a final density of approximately 7000 RU, followed by surface deactivation with 1 M ethanolamine. For each protein, coupling was performed at a concentration of 2 µM protein in 10 mM sodium acetate buffer pH 4.0, 1% (v/v) DMSO final, in the presence 10 µM of the moderate affinity compound FMF-03-149-01 (IC50 ~400 nM)[28] to help to stabilise the kinase domain during immobilsiation at low pH. A blank immobilisation was performed on the reference flow cell.
(§3) Binding experiments were performed at 18 °C in running buffer consisting of 20 mM HEPES, pH 7.4, 150 mM NaCl, 1 mM tris(2-carboxyethyl)phosphine (TCEP), 0.005% (v/v) Tween-P20, and 2% (v/v) DMSO. Compounds (10 mM stocks in 100% DMSO) were diluted in DMSO to 500 µM (DCLK1-NEG) or 25 µM (all other compounds) then in running buffer (without DMSO) to achieve the starting concentration with a final DMSO concentration of 2% (v/v). Samples were then serially titrated in running buffer containing 2% (v/v) DMSO to prepare each final concentration series (seven-point, three-fold serial dilution, 10 µM−13.7 nM for DCLK1-NEG, or 500−0.68 nM for all other compounds). Solutions were injected in multi-cycle format (in duplicate) without regeneration (contact time 80 s, flow rate 75 μL/min, dissociation time 600 s), with an extra wash (50% DMSO) after each injection.
(§4) Steady-state/kinetic binding data were fitted using the S200 BIAevaluation software (GE Healthcare). Sensorgrams from reference surfaces and blank injections were subtracted from the raw data (double-referencing), followed by solvent correction. Kinetic rate constants (kon and koff values) were obtained by fitting to 1:1 Langmuir binding model. Reported binding data represent mean ± SEM for three or four independent experiments. The dissociative half-life life (t1/2) for each inhibitor complex with DCLK1 was calculated from the fitted dissociation rate constant (koff), according to the equation 1 (t1/2 = ln(2)/koff.)

[4] = biological target: T3, DCLK1-FL1Δ D511N (Homo sapiens, UniProt O15075, D511N); test: SPR binding to immobilised DCLK1-FL1Δ D511N (non-phosphorylated); conditions: for Kd: 18 °C, DCLK1 FL1Δ D511N immobilised, mean ± SEM
T3 construct: DCLK1-FL1Δ (residues 50-686); 8XHis tag with TEV protease cleavage site (N); made in house; host or cells: Escherichia coli C41(DE3)
T3 sequence (O15075 50-686 D511N): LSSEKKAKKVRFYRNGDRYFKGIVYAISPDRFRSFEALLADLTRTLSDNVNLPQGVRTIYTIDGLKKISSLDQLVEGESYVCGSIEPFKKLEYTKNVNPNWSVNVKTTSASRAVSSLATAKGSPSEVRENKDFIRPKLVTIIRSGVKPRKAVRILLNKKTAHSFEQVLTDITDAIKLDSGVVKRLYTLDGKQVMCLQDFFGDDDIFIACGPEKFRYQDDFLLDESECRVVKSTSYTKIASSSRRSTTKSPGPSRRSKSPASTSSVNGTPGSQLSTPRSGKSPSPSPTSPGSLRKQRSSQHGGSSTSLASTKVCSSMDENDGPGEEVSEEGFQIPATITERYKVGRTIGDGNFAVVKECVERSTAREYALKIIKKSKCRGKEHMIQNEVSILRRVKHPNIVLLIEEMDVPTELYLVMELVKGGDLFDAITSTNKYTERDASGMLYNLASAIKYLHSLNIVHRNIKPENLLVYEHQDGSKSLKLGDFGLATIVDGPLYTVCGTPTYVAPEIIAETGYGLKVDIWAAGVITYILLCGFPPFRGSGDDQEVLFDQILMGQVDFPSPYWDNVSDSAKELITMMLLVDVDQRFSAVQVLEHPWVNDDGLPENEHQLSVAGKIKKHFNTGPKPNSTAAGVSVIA
Method: as §2, §3, §4

[5] = read-out: koff, kinetic fitting

- binding by shift in melting temperature (ΔTm) [1]: bind DCLK1-KD
- melting temperature change versus control compound DCLK1-NEG [2]: increased
- kon, kinetic fitting [3]: 6 ± 2 1/Ms (x 10^5)
- Kd ([3]; read-out: KD, kinetic fitting (1:1 binding model)): 83 ± 22 nM
- Kd ([3]; read-out: KD, steady state fitting): 145 ± 35 nM
- koff [3, 5]: 0.04 ± 0.01 s⁻¹
- kon, kinetic fitting [4]: 5.1 ± 0.3 1/Ms (x 10^5)
- off-rate faster relative to FMF-03-055-01 or XMD8-85 ([4]; SPR): ~ 2 fold
- on-rate slower relative to FMF-03-055-01 or XMD8-85 ([4]; SPR): ~ 2 fold
- affinity weaker than FMF-03-055-01 or XMD8-85 ([4]; SPR KD, DCLK1-FL1Δ D511N): 4−5 fold
- Kd ([4]; SPR, read-out: KD, kinetic fitting (1:1 binding model)): 53 nM
- Kd ([4]; SPR, read-out: KD, steady state fitting): 70 ± 4 nM
- reduction in DCLK1 affinity compared to FMF-03-055-1 ([4]; discussion statement): five-fold reduction
- koff [4, 5]: 0.027 ± 0.001 s⁻¹
- kon ([4]; read-out: kon (Fig. 5c)): 510000 ± 30000 M⁻¹ s⁻¹
Structure (SMILES): COc1cc(N2CCN(C)CC2)ccc1Nc1ncc2c(n1)N(C)c1ccccc1C(=O)N2CC(F)(F)F [DCLK1-IN-1]
